In the experiment the test system is stem-cell derived cardiomyocytes. Briefly: Perforated patch clamp action potential measurement of spontaneously beating stem-cell derived cardiomyocytes. It is filed as cell-based, human. The following applies: induced pluripotent stem cell derived cardiomyocytes. How it is done: Differentiated (fetal-like/immature) human stem-cell derived cardiomyocytes were subsequently cultured and allowed to mature as described below, although any other method in the art may suitable be used. Tissue culture plastic was coated using Matrigel (Corning) at a concentration of 1/100 in DMEM, for 45 min at room temperature. A single cell suspension coming from dissociated embryoid bodies, dissociated monolayers or (commercially obtained) frozen (fetal-like (immature)) stem-cell derived cardiomyocytes were seeded at an appropriate density on matrigel coated tissue culture plastic (e.g. in 20-40 k cells per well of a 96-well plate, e.g. 20-200 k per well of a 12 well plate). On day 1 following plating, the foetal-like (immature) cardiomyocytes were exposed to a culture medium composition of the invention, which consists of a serum-free culture medium composition comprising 50 ng/ml of T3 (Sigma T6397), 2 mM of carnitine, 5 mM of creatine, 5 mM of taurine, 2.2 microgram/ml of cholesterol, 0.1 microgram/ml of linoleic acid, 0.1 microgram/ml of linolenic acid, 0.1 microgram/ml of palmitic acid (lipids, for example, from Gibco 11905), 10 mg/ml of insulin, 5.5 mg/ml of transferrin, 0.0067 mg/ml of selenium (insulin, transferrin and selenium from e.g. Gibco 51500), 0.01% of trace element mix B (as described herein; Cellgro 99-175-CL), 0.1% of trace element mix C (as described herein; Cellgro 99-176-CL), 0.5 w/w % of antibiotics (penicillin-streptomycin mixture commercially available Gibco (Gibco 12070; 5000 U/ML), 0.05 mg/ml ascorbic acid, 2 mM of Glutamax supplement (i.e. L-alanyl-L-glutamine dipeptide in 0.85% NaCl, commercially available at Gibco, e.g. Gibco 35050), 0.125 w/w % polyvinylalcohol (PVA), 450 nM of alpha monothiolglycerol (MTG) (commercially available), 025 w/w %/o BSA (Bovostar BSAS1.0) in 46.5% (w/w) IMDM (Gibco 21056) and 46.5% (w/w) HAM F-12 with glutamax (Gibco 31765). All concentrations are expressed as final concentration in the culture medium composition. This step was repeated every 2-3 days. In those experiments that also use thyroid hormone or a thyroid hormone analog, treatment with the culture medium composition as taught herein comprising e.g. T3 started either at day 1, day 3 or day 7 post plating.
At day 10 dbcAMP was added to a final concentration of 0.5 mM and the cell were further cultured. Action potential measurements of control and dbcAMP treated cells were performed using the patch clamp technique at 24, 48 and 72-hours post addition of the cAMP-raising compound.
Electrophysiology of the cells treated with the cAMP-raising compound or not was determined by standard techniques in the art, in particular with the method as described by for example, Bellin et al. (EMBO J. 2013; 32(24): 3161-3175), with the modification that in the examples provide herein spontaneous activity of the stem-cell derived cardiomyocytes was determined and no electric stimulation was required, although measurement may, as the skilled person knows, also be done under conditions of stimulation. Action potentials from small groups of cells (5-10 cells) were measured with the perforated patch clamp technique using an Axopatch 200b amplifier (Molecular Devices) and low resistance patch pipettes (1.5-2.5 MΩ). Data acquisition and analyses of action potentials were performed with pClamp 10 (axon instruments) and custom made software. Action Potentials were corrected for the calculated liquid junction potential (−15 mV).
Action potential from spontaneous beating cells were measured at 37±0.20 C using a modified Tyrode's solution containing (in mM): 140 NaCl, 5.4 KCl, 1.8 CaCl2, 1.0 MgCl2, 5.5 glucose, 5.0 HEPES; pH7.2 (NaOH).
The pipette solution contained (in mM): 125 K-gluconate, 20 KCl, 5 NaCl, 0.22 amphotericin-B, 10 HEPES; pH 7.2 (KOH). […]

Molecules are shown by their SMILES.

In the case of `CCCC(=O)Nc1ncnc2c1ncn2[C@@H]1O[C@@H]2COP(=O)(O)O[C@H]2[C@H]1OC(=O)CCC` [dbcAMP, N6,2′-O-dibutyryladenosine 3′,5′-cyclic monophosphate], the upstroke velocity result (0.5 mM dbcAMP for 24, 48 and 72 hrs vs non-treated, FIG. 1) is reported as “improved the upstroke velocity dramatically”. Also, the “resting membrane potential (liquid junction potential corrected)” value (0.5 mM dbcAMP for 24, 48 and 72 hrs vs non-treated, FIG. 2) is on record as “improved the resting membrane potential dramatically”. In addition, the representative action potentials entry was “action potentials that are more adult cardiomyocyte like” (dbcAMP for 24, 48 and 72 hrs vs non-treated, FIG. 3); “action potentials that are more adult cardiomyocyte like” (dbcAMP for 72 hrs vs non-treated, FIG. 6). In addition, the amplitude result (dbcAMP for 24, 48 and 72 hrs vs non-treated, FIG. 4) is listed as “improves the amplitude”. Where the note is “dbcAMP for 24, 48 and 72 hrs vs non-treated, FIG. 5”, the repolarization parameters entry is “improves the repolarization parameters”.
